Assays:
Format in all cases: ADME, organism-based
[1] = MRT in rat at 10 mg/kg, iv; details: in vivo
[2] = Tmax in rat at 20 mg/kg, po; details: in vivo
[3] = Apparent clearance in rat at 10 mg/kg, iv; details: in vivo, read-out: CL(app) (converted)
[4] = AUC (0 to infinity) in rat at 10 mg/kg, iv; design: dose 10 mg/kg, time infinity, route intravenous; details: in vivo
[5] = Cmax in rat at 10 mg/kg, iv; design: dose 10 mg/kg, route intravenous; details: in vivo
[6] = AUC (0 to infinity) in rat at 20 mg/kg, po; design: dose 20 mg/kg, route oral, time infinity; details: in vivo
[7] = Half life in rat at 10 mg/kg, iv; details: in vivo
[8] = Oral bioavailability in rat at 20 mg/kg; details: in vivo
[9] = MRT in rat at 20 mg/kg, po; details: in vivo
[10] = Half life in rat at 20 mg/kg, po; details: in vivo
[11] = Tmax in rat at 10 mg/kg, iv; details: in vivo
[12] = Cmax in rat at 20 mg/kg, po; design: dose 20 mg/kg, route oral; details: in vivo

Row | MRT [1] | Tmax [2] | clearance [3] | AUC(0-inf) [4] | Cmax [5] | AUC(0-inf) [6] | half-life [7] | bioavailability [8] | MRT [9] | half-life [10] | Tmax [11] | Cmax [12] | SMILES
1 | 2.94 h | 0.5 h | 37.9 mL/min/kg | 4400 ng·h/mL | 2430 ng/mL | 613 ng·h/mL | 1.1 h | 7% | 3.54 h | 1.22 h | 4.98 min | 109 ng/mL | Cc1ccc(OCC(F)(F)F)c(OCCN[C@H](C)Cc2cc(C(N)=O)c3c(ccn3CCCO)c2)c1
2 | 2.34 h | 4 h | 47.5 mL/min/kg | 3510 ng·h/mL | 3000 ng/mL | 1700 ng·h/mL | 1.63 h | 24.3% | 6.22 h | 4.67 h | 4.98 min | 152 ng/mL | C[C@H](Cc1cc2c(c(C(N)=O)c1)N(CCCO)CC2)NCCOc1cc(Cl)ccc1OCC(F)(F)F
